Laboratory results from patent US20060110472A1, “Use of allicin as insect repellent and insecticide in agricultural crops” (priority 2002, published 2006).

Columns and labels:
[1] = tested on: Fruit flies, Drosophila Melanogaster; assay: Egg laying of fruit flies on plates containing allicin (repellent activity); format: in vivo
Experimental: Fruit flies, Drosophila Melanogaster, were grown in a plastic container and allowed to lay eggs in laying bottles (6×4 cm) containing allicin (100 μl) in various concentrations (0-12 mM). Allicin was introduced to the egg-laying sites on a ring of Whatman (3 mm) paper placed at the periphery of the egg laying plate which was placed at the bottom of the bottle. A yeast paste (fly food) was applied in the middle of the plate. Female fruit flies (N=100) were introduced into the laying bottle and were allowed to lay eggs for 16 hours. At the end of the 16 hours, the number of eggs was counted in each plate. The total number of eggs laid by the flies was 1440. The repellent effect of allicin on the fruit fly was determined by measuring the number of laid eggs during the continuous exposure of the flies to the various concentrations of allicin. The results are shown in FIG. 1a as a percentage of laid eggs in the presence of each concentration of allicin in comparison with the number of eggs laid by flies in the absence of allicin (first column, left—100%). […] At the end of the 8 hours, the number of eggs was counted in each plate. […] The repellent effect of allicin on the fruit fly was determined by measuring the number of laid eggs in allicin-free plates for 8 hours after the 16-hour exposure of the flies to the various concentrations of allicin. […]

[2] = tested on: hatched larvae of fruit fly; assay: Lethality of hatched larvae on egg-laying plates with allicin; format: in vivo, Drosophila Melanogaster; details: allicin stock 1-2 mg/ml added to egg-laying plates, about 200 eggs per plate
Experimental: In an additional experiment, lethality of 80-90% of the hatched larvae produced in the second phase of the fly life cycle was caused by addition of allicin (stock 1-2 mg/ml) to egg-laying plates containing about 200 eggs per plate (not shown).

[3] = tested on: fruit flies that attack the persimmon trees; assay: Spraying of persimmon trees with allicin, repellent effect on fruit flies; format: in vivo, fruit fly; details: trees sprayed with water solution 0.1-0.2 g/l (0.5-1 mM) every second week, 12 weeks, 6 sessions, FIG. 2
Experimental: (§1) Persimmon trees (Oriental persimmon of the type “Fuyu”, 2.5-3 meters tall) in the Hasharon region, Israel, were sprayed with a water solution of allicin (0.1-0.2 g/l, 0.01-0.02% or 0.5-1 mM) every second week, during a 12-week period, for a total of 6 sessions. Spraying with allicin was started 2-3 weeks after persimmon fruit setting, when the fruits reached 1-2 cm in diameter. The spraying was performed in such a way as to wet the leaves and the fruits completely. No other insecticides or other treatments were used in parallel or at any point of the experiment. FIG. 2 is a photograph showing persimmon fruits from trees treated with allicin (left) and from untreated trees (right).

[4] = tested on: Persimmon trees (Oriental persimmon of the type "Fuyu"); assay: Damage to leaves of persimmon trees after spraying with allicin; format: in vivo; details: water solution 0.1-0.2 g/l, 6 sprayings over 12 weeks
Experimental: as §1

[5] = tested on: ants; assay: Repellent effect of allicin on ants; format: in vivo
Experimental: Treatment of the locus of an ant colony with a water solution of allicin (1 mg/ml) prevented the ants from reentering the place for at least 3 days.

## C=CCS[S+]([O-])CC=C (stereo not shown) [allicin, thio-2-propene-1-sulfinic acid S-allyl ester]
[1]; 0-12 mM allicin (100 μl), 16 hours continuous exposure, FIG. 1a
  repellent activity, inhibition of egg laying by the flies (% of eggs laid vs no allicin): dose-dependent
[1]; 8 hours on allicin-free plates after 16 hours exposure to 0-12 mM allicin, FIG. 1b
  inhibition of capability of the flies to lay eggs on allicin-free plates after exposure: significant inhibition effect
[2]
  lethality of hatched larvae: 80-90%
[3]
  repellent effect on fruit flies, appearance of persimmon fruits: repellent effect on fruit flies
[4]
  damage to leaves after spraying: no damage
[5]; water solution of allicin 1 mg/ml on a line in the floor, even after the solution dried off
  crossing of a treated line in the floor by ants: prevented the crossing of the line by ants
[5]; water solution of allicin 1 mg/ml on locus of an ant colony
  time ants were prevented from reentering the treated locus of the colony: at least 3 days
